Measured values: US12655116B2, “Substituted isophthalic acid diamides” (Bayer Aktiengesellschaft, priority 2020, dated 2026)

Tests used:
[1] = test system: MATIN; test: Pre-emergence herbicidal action against MATIN; type: in vivo, Matricaria inodora; conditions: for pest or weed control at 80 g/ha / pest or weed control at 20 g/ha: Tripleurospermum inodorum, 504 h
Summary of the method: (§1)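 Sandy loam pots, seeds covered with soil, then surface-treated with WP or EC formulations at 600–800 l/ha water plus 0.2% wetting agent. Greenhouse, 3 weeks. Percent damage vs untreated controls.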

[2] = test system: ALOMY; test: Post-emergence herbicidal action against ALOMY; type: in vivo, Alopecurus myosuroides; conditions: visual assessment about 3 weeks after treatment vs untreated controls
Description: (§2) Seeds of monocotyledonous and dicotyledonous weed and crop plants are laid out in sandy loam soil in wood-fiber pots, covered with soil and cultivated in a greenhouse under good growth conditions. 2 to 3 weeks after sowing, the test plants are treated at the one-leaf stage. The compounds of the invention, formulated in the form of wettable powders (WP) or as emulsion concentrates (EC), are then sprayed onto the green parts of the plants in the form of an aqueous suspension or emulsion at a water application rate equivalent to 600 to 800 l/ha, with addition of 0.2% wetting agent. After the test plants have been left to stand in the greenhouse under optimal growth conditions for about 3 weeks, the action of the preparations is assessed visually in comparison to untreated controls (herbicidal action in percent (%): 100% activity=the plants have died, 0% activity=like control plants). […] The tables below illustrate, in an illustrative manner, the post-emergence herbicidal action of the compounds of the invention, the herbicidal activity being stated in percent.

[3] = test system: AMARE; test: Post-emergence herbicidal action against AMARE; type: in vivo, Amaranthus retroflexus; conditions: 20 g/ha, visual assessment about 3 weeks after treatment, 100% = plants have died, 0% = like control plants; for pest or weed control at 20 g/ha: Amaranthus retroflexus, 504 h
Summary of the method: (§3)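 Visual % rating (0% = as untreated, 100% = dead) ~3 wk after spraying one-leaf-stage plants grown in sandy loam; WP/EC in water at 600–800 l/ha, 0.2% wetting agent.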

[4] = test system: AMARE; test: Pre-emergence herbicidal action against AMARE; type: in vivo, Amaranthus retroflexus; conditions: for pest or weed control at 20 g/ha / pest or weed control at 80 g/ha: Amaranthus retroflexus, 504 h
Summary of the method: as §1

[5] = test system: ALOMY; test: Pre-emergence herbicidal action against ALOMY; type: in vivo, Alopecurus myosuroides; conditions: pre-emergence; for Pre-emergence action against ALOMY (herbicidal activity) / pest or weed control at 80 g/ha: 80 g/ha, scored visually after 3 weeks vs untreated controls (100% = plants have died, 0% = like control plants); for pest or weed control at 80 g/ha / pest or weed control at 20 g/ha: Alopecurus myosuroides, 504 h; for pest or weed control at 20 g/ha: scored visually after 3 weeks, 100% = plants have died, 0% = like control plants
Summary of the method: as §1

[6] = test system: VERPE; test: Post-emergence herbicidal action against VERPE; type: in vivo, Veronica persica; conditions: 20 g/ha; for pest or weed control at 20 g/ha: Veronica persica, 504 h
Description: as §2

[7] = test system: SETVI; test: Post-emergence herbicidal action against SETVI; type: in vivo, Setaria viridis; conditions: for pest or weed control at 5 g/ha / pest or weed control at 20 g/ha: Setaria viridis, 504 h
Summary of the method: as §3

[8] = test system: VIOTR; test: Pre-emergence herbicidal action against VIOTR; type: in vivo, Viola tricolor
Summary of the method: as §1

[9] = test system: ECHCG; test: Post-emergence herbicidal action against ECHCG; type: in vivo, Echinochloa crus-galli; conditions: dosage 20 g/ha
Summary of the method: as §3

[10] = test system: SETVI; test: Pre-emergence herbicidal action against SETVI; type: in vivo, Setaria viridis; conditions: dosage 80 g/ha
Summary of the method: as §1

[11] = test system: PHBPU; test: Post-emergence herbicidal action against PHBPU; type: in vivo, Pharbitis purpurea
Summary of the method: as §3

[12] = test system: ABUTH; test: Pre-emergence herbicidal action against ABUTH; type: in vivo, Abutilon theophrasti; conditions: for Pre-emergence action against ABUTH (herbicidal activity) / pest or weed control at 80 g/ha: 80 g/ha, scored visually after 3 weeks vs untreated controls (100% = plants have died, 0% = like control plants); for pest or weed control at 80 g/ha: Abutilon theophrasti, 504 h
Summary of the method: as §1

[13] = test system: MATIN; test: Post-emergence herbicidal action against MATIN; type: in vivo, Matricaria inodora; conditions: dosage 20 g/ha
Description: as §2

[14] = test system: VIOTR; test: Post-emergence herbicidal action against VIOTR; type: in vivo, Viola tricolor; conditions: for pest or weed control at 20 g/ha: Viola tricolor, 504 h
Summary of the method: as §3

[15] = test system: AVEFA; test: Pre-emergence herbicidal action against AVEFA; type: in vivo, Avena fatua; conditions: 80 g/ha, pre-emergence; for pest or weed control at 80 g/ha: Avena fatua, 504 h
Summary of the method: as §1

[16] = test system: ABUTH; test: Post-emergence herbicidal action against ABUTH; type: in vivo, Abutilon theophrasti; conditions: visual assessment about 3 weeks after treatment vs untreated controls
Summary of the method: as §3

[17] = test system: ECHCG; test: Pre-emergence herbicidal action against ECHCG; type: in vivo, Echinochloa crus-galli; conditions: 80 g/ha; for pest or weed control at 80 g/ha: Echinochloa crus-galli, 504 h
Summary of the method: as §1

[18] = test system: VERPE; test: Pre-emergence herbicidal action against VERPE; type: in vivo, Veronica persica
Summary of the method: as §1

[19] = test system: DIGSA; test: Post-emergence herbicidal action against DIGSA; type: in vivo, Digitaria sanguinalis; conditions: Digitaria sanguinalis, 504 h
Summary of the method: as §3

[20] = test system: DIGSA; test: Pre-emergence herbicidal action against DIGSA; type: in vivo, Digitaria sanguinalis; conditions: Digitaria sanguinalis, 504 h
Summary of the method: as §1

[21] = 20 g/ha, scored visually after 3 weeks vs untreated controls, 100% = plants have died, 0% = like control plants
[22] = 80 g/ha, scored visually after 3 weeks vs untreated controls (100% = plants have died, 0% = like control plants)
[23] = Alopecurus myosuroides, 504 h, dosage 20 g/ha
[24] = 80 g/ha, scored visually after 3 weeks vs untreated controls, 100% = plants have died, 0% = like control plants
[25] = Viola tricolor, 504 h, dosage 80 g/ha
[26] = Ipomoea purpurea, 504 h, dosage 20 g/ha
[27] = Abutilon theophrasti, 504 h, dosage 20 g/ha

Row | Compound | Pre-emergence action against MATIN in % ([1]; dosage 80 g/ha) [%] | Post-emergence action against ALOMY in % ([2]; dosage 20 g/ha) [%] | Post-emergence action at 20 g/ha against AMARE in % [3] [%] | Pre-emergence action against AMARE in % [4, 22] [%] | Pre-emergence action against ALOMY (herbicidal activity) [5] [%] | Post-emergence action against VERPE in % [6] [%] | Pre-emergence action against VIOTR in % ([8]; dosage 80 g/ha) [%] | Post-emergence action against ECHCG in % [9] [%] | Post-emergence action against PHBPU in % ([11]; dosage 20 g/ha) [%] | Pre-emergence action against ABUTH (herbicidal activity) [12] [%] | Post-emergence action against VIOTR in % ([14]; 20 g/ha) [%] | Post-emergence action against ABUTH in % ([16]; dosage 20 g/ha) [%] | pest or weed control at 80 g/ha ([1]; dosage 80 g/ha) [%] | pest or weed control at 20 g/ha [2, 23] [%] | pest or weed control at 20 g/ha [3] [%] | pest or weed control at 20 g/ha [4, 21] [%] | pest or weed control at 80 g/ha [4, 24] [%] | pest or weed control at 80 g/ha [5] [%] | pest or weed control at 20 g/ha [6] [%] | pest or weed control at 20 g/ha [11, 26] [%] | also measured
1 | CCn1nnnc1NC(=O)c1ccc(OC)c(C(=O)NC)c1Cl [Example 2-352] | 90 | 90 | 100 | 100 | 90 | 90 | 80 | 90 | 80 | 100 | 90 | 80 | – | – | – | – | – | – | – | – | Pre-emergence action against MATIN in % ([1]; dosage 20 g/ha): 90%; Post-emergence action against ALOMY in % ([2]; dosage 5 g/ha): 80%; Pre-emergence action against AMARE in % [4, 21]: 100%; Post-emergence action against SETVI in % ([7]; dosage 5 g/ha): 80%; Post-emergence action against SETVI in % ([7]; dosage 20 g/ha): 80%; Pre-emergence action against VIOTR in % ([8]; dosage 20 g/ha): 80%; Pre-emergence action against SETVI in % [10]: 100%; Post-emergence action against MATIN in % [13]: 80%; Pre-emergence action against AVEFA in % [15]: 80%; Pre-emergence action against ECHCG in % [17]: 80%
2 | COc1ccc(C(=O)Nc2nnnn2C)c(Cl)c1C(=O)NC1CC1 [Example 1-356] | – | – | – | – | – | – | – | – | – | – | – | – | 100 | 80 | 100 | 100 | 100 | 100 | 90 | 80 | pest or weed control at 20 g/ha ([18]; Veronica persica, 504 h, dosage 20 g/ha): 100%; pest or weed control at 80 g/ha ([18]; Veronica persica, 504 h, dosage 80 g/ha): 100%; pest or weed control at 80 g/ha [8, 25]: 100%; pest or weed control at 80 g/ha [12]: 100%; pest or weed control at 20 g/ha ([14]; 20 g/ha): 90%; pest or weed control at 20 g/ha [16, 27]: 100%
3 | COCCNC(=O)c1c(C(F)F)ccc(C(=O)Nc2nnnn2C)c1C [Example 1-347] | 90 | 80 | 100 | 100 | 80 | 90 | 80 | 90 | 90 | 100 | 100 | 90 | – | – | – | – | – | – | – | – | Post-emergence action against PHBPU in % ([11]; dosage 5 g/ha): 90%; Post-emergence action against VIOTR in % ([14]; 5 g/ha): 80%; Post-emergence action against ABUTH in % ([16]; dosage 5 g/ha): 80%
4 | CNC(=O)c1c(Br)ccc(C(=O)Nc2nnnn2C)c1Br [Example 1-342] | – | – | – | – | – | – | – | – | – | – | – | – | 100 | 100 | 100 | 100 | 100 | 100 | 80 | 90 | pest or weed control at 20 g/ha ([1]; dosage 20 g/ha): 80%; pest or weed control at 5 g/ha ([2]; Alopecurus myosuroides, 504 h, dosage 5 g/ha): 90%; pest or weed control at 20 g/ha [5]: 90%; pest or weed control at 5 g/ha ([7]; dosage 5 g/ha): 90%; pest or weed control at 20 g/ha ([7]; dosage 20 g/ha): 90%; pest or weed control at 20 g/ha ([9]; Echinochloa crus-galli, 504 h): 80%; pest or weed control at 5 g/ha ([11]; Ipomoea purpurea, 504 h, dosage 5 g/ha): 80%; pest or weed control at 20 g/ha ([14]; 20 g/ha): 80%; pest or weed control at 80 g/ha [15]: 100%; pest or weed control at 5 g/ha ([16]; Abutilon theophrasti, 504 h, dosage 5 g/ha): 90%; pest or weed control at 20 g/ha [16, 27]: 90%; pest or weed control at 80 g/ha [17]: 100%
5 | Cn1nnnc1NC(=O)c1ccc(C(F)(F)F)c(C(=O)NCC(F)(F)F)c1Cl [Example 1-133] | – | – | – | – | – | – | – | – | – | – | – | – | 100 | 90 | 100 | 90 | 100 | 90 | 90 | 80 | pest or weed control at 20 g/ha ([1]; dosage 20 g/ha): 90%; pest or weed control at 20 g/ha [5]: 90%; pest or weed control at 5 g/ha ([7]; dosage 5 g/ha): 90%; pest or weed control at 20 g/ha ([7]; dosage 20 g/ha): 100%; pest or weed control at 20 g/ha ([8]; Viola tricolor, 504 h, dosage 20 g/ha): 100%; pest or weed control at 80 g/ha [8, 25]: 100%; pest or weed control at 5 g/ha ([19]; 5 g/ha): 90%; pest or weed control at 20 g/ha ([19]; 20 g/ha): 90%; pest or weed control at 80 g/ha ([10]; Setaria viridis, 504 h): 100%; pest or weed control at 20 g/ha ([20]; dosage 20 g/ha): 90%; pest or weed control at 80 g/ha ([20]; dosage 80 g/ha): 100%; pest or weed control at 80 g/ha [12]: 100%; pest or weed control at 20 g/ha ([14]; 20 g/ha): 80%; pest or weed control at 80 g/ha [15]: 100%; pest or weed control at 80 g/ha [17]: 100%
6 | CSc1c(C(=O)Nc2nnnn2C)ccc(C(F)F)c1C(=O)NCC1CC1 [Example 1-90] | 100 | 80 | 100 | 100 | 80 | 90 | 100 | 100 | 90 | 100 | 100 | 90 | – | – | – | – | – | – | – | – | Pre-emergence action against MATIN in % ([1]; dosage 20 g/ha): 100%; Pre-emergence action against VERPE in % ([18]; dosage 80 g/ha): 90%; Pre-emergence action against AMARE in % [4, 21]: 100%; Post-emergence action against SETVI in % ([7]; dosage 20 g/ha): 90%; Pre-emergence action against VIOTR in % ([8]; dosage 20 g/ha): 90%; Pre-emergence action against SETVI in % [10]: 100%; Pre-emergence action against ABUTH (herbicidal activity in percent) ([12]; dosage 20 g/ha, scored visually after 3 weeks vs untreated controls, 100% = plants have died, 0% = like control plants): 100%; Post-emergence action against MATIN in % [13]: 80%; Post-emergence action against VIOTR in % ([14]; 5 g/ha): 80%; Post-emergence action against ABUTH in % ([16]; dosage 5 g/ha): 80%; Pre-emergence action against ECHCG in % [17]: 100%
